From patent US20210317092A1 (BAYER PHARMA AKTIENGESELLSCHAFT, priority 2016, published 2021)
Where two headings read alike, the source gives them in different places.

Experiments:
[1] = target: T1, human Bradykinin B1 receptor (Homo sapiens, UniProt P46663); assay: Calcium flux Assay (FLIPR) with recombinant CHO-K1 cells expressing human Bradykinin B1 receptor, in presence (hB1 IC50) or absence (hB1 free IC50) of 0.1% BSA; assay type: cell-based
T1 construct: host or cells: CHO-K1
T1 sequence (P46663 1-353): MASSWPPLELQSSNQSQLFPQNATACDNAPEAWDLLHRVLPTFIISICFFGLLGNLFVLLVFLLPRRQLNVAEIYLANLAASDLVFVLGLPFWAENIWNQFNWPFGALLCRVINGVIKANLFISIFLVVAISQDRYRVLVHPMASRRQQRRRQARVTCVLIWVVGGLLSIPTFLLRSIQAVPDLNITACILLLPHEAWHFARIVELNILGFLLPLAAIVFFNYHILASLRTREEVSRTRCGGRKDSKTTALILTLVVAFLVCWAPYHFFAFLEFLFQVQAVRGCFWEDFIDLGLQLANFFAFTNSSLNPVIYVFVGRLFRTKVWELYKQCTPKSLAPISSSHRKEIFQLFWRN

[2] = target: T2, native human Bradykinin B1 receptor (Homo sapiens, UniProt P46663); assay: Calcium flux Assay (FLIPR) with human fibroblasts expressing Bradykinin B1 receptor (hB1 IMR-90); assay type: cell-based; conditions: IMR-90 human fibroblasts expressing native Bradykinin B1 receptor
T2 construct: which express native human Bradykinin B1 receptor after induction with human IL-10; Coriell Institute; host or cells: IMR-90 human foetal lung fibroblasts, cytokine-induced
T2 sequence (P46663 1-353): T1 sequence (P46663 1-353)
Summary of the method: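 IMR-90 human foetal lung fibroblasts induced with 0.35 ng/mL […] for 3 h, Fluo-4/AM-loaded, preincubated with compound (8 concentrations, triplicate) for 30 min at 28 °C, then challenged with Lys-(Des-Arg)-bradykinin at EC90. Ca2+ fluorescence was read at 538 nm; full inhibition set by 20 µM Lys-(Des-Arg-Leu)-bradykinin; IC50 derived.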

[3] = in absence of 0.1% BSA, read-out: hB1 free IC50
[4] = in presence of 0.1% BSA, read-out: hB1 IC50

IC50 [1, 3] [nM] | IC50 [2] [nM] | IC50 [1, 4] [nM] | SMILES
2.77 | 3.92 | – | Cc1cc(-c2ccc(NC(=O)C3(c4ccc(C(F)(F)F)cc4F)CC3)cc2-c2nnn[nH]2)ccn1 [Example 212, 1-[2-fluoro-4-(trifluoromethyl)phenyl]-N-[4-(2-methylpyridin-4-yl)-3-(1H-tetrazol-5-yl)phenyl] cyclopropane carboxamide]
18 | 24.7 | 63.2 | Cn1ncc2ccc(-c3ccc(NC(=O)C4(c5cccc(Cl)c5)CC4)cc3-c3nnn[nH]3)cc21 [Example 213, 1-(3-chlorophenyl)-N-[4-(1-methyl-1H-indazol-6-yl)-3-(1H-tetrazol-5-yl)phenyl] cyclopropane-carboxamide]
7.93 | 26.9 | 47.2 | Cn1ncc2ccc(-c3ccc(NC(=O)C4(c5cccc(Cl)c5F)CC4)cc3-c3nnn[nH]3)cc21 [Example 214, 1-(3-chloro-2-fluorophenyl)-N-[4-(1-methyl-1H-indazol-6-yl)-3-(1H-tetrazol-5-yl)phenyl] cyclopropane carboxamide]
3.21 | 8.48 | – | Cn1ncc2ccc(-c3ccc(NC(=O)C4(c5ccc(C(F)(F)F)cc5F)CC4)cc3-c3nnn[nH]3)cc21 [Example 215, 1-[2-fluoro-4-(trifluoromethyl)phenyl]-N-[4-(1-methyl-1H-indazol-6-yl)-3-(1H-tetrazol-5-yl)phenyl] cyclopropane-carboxamide]
40.6 | 38.8 | – | CCn1cc(-c2ccc(NC(=O)C3(c4cccc(Cl)c4)CC3)cc2-c2nnn[nH]2)cn1 [Example 216, 1-(3-chlorophenyl)-N-[4-(1-ethyl-1H-pyrazol-4-yl)-3-(1H-tetrazol-5-yl)phenyl] cyclopropane-carboxamide]
264 | 31.6 | 75 | CCOc1ccc(-c2ncc(NC(=O)C3(c4cccc(Cl)c4)CC3)cc2-c2nnn[nH]2)cn1 [Example 218, 1-(3-chlorophenyl)-N-[6′-ethoxy-3-(1H-tetrazol-5-yl)-2,3′-bipyridin-5-yl]cyclopropane carboxamide]
27.4 | 23.1 | 49.8 | O=C(Nc1cc(-c2nnn[nH]2)c(-c2ccc(C(F)(F)F)nc2)cc1O)C1(c2ccc(F)c(Cl)c2)CC1 [Example 220, 1-(3-chloro-4-fluorophenyl)-N-{2-hydroxy-5-(1H-tetrazol-5-yl)-4-[6-(trifluoromethyl)pyridin-3-yl]phenyl} cyclopropane-carboxamide]
– | 55.6 | 75.7 | O=C(Nc1cc(-c2nnn[nH]2)c(-c2ccc(C(F)(F)F)nc2)cc1O)C1(c2cc(Cl)ccc2F)CC1 [Example 222]
– | 108 | 49.6 | O=C(Nc1cc(-c2nnn[nH]2)c(-c2ccc(C(F)(F)F)nc2)cc1O)C1(c2ccc(Cl)c(F)c2)CC1 [Example 224, 1-(4-chloro-3-fluorophenyl)-N-{2-hydroxy-5-(1H-tetrazol-5-yl)-4-[6-(trifluoromethyl)pyridin-3-yl]phenyl} cyclopropane-carboxamide]
– | 177 | 83.8 | CCOc1ccc(-c2cc(O)c(NC(=O)C3(c4ccc(Cl)cc4)CC3)cc2-c2nnn[nH]2)cn1 [Example 227, 1-(4-chlorophenyl)-N-[4-(6-ethoxypyridin-3-yl)-2-hydroxy-5-(1H-tetrazol-5-yl)phenyl] cyclopropane-carboxamide]
8.26 | 6.8 | 18.6 | COc1ccc(-c2c(F)cc(NC(=O)C3(c4ccc(C(F)(F)F)cc4)CC3)cc2-c2nnn[nH]2)cc1OC [Example 232, N-[2-Fluoro-3′,4′-dimethoxy-6-(1H-tetrazol-5-yl)biphenyl-4-yl]-1-[4-(trifluoromethyl)phenyl] cyclopropane-carboxamide]
18.9 | 35.2 | 68.6 | COc1cc(-c2ccc(NC(=O)C3(c4cccc(Cl)c4)CC3)cc2-c2nnn[nH]2)ccc1C(F)(F)F [Example 233, 1-(3-chlorophenyl)-N-[3′-methoxy-2-(1H-tetrazol-5-yl)-4′-(trifluoromethyl)biphenyl-4-yl]cyclopropane carboxamide]
11 | 18.6 | 29.9 | COc1ccc(-c2c(F)cc(NC(=O)C3(c4cccc(Cl)c4)CC3)cc2-c2nnn[nH]2)cc1OC [Example 234, 1-(3-Chlorophenyl)-N-[2-fluoro-3′,4′-dimethoxy-6-(1H-tetrazol-5-yl)biphenyl-4-yl]cyclopropane carboxamide]
2.9 | 15.6 | – | CCOc1ccc(-c2c(F)cc(NC(=O)C3(c4cccc(Cl)c4)CC3)cc2-c2nnn[nH]2)cn1 [Example 236, 1-(3-chlorophenyl)-N-[4-(6-ethoxypyridin-3-yl)-3-fluoro-5-(1H-tetrazol-5-yl)phenyl] cyclopropane-carboxamide]
2.35 | 2.83 | – | CCOc1ccc(-c2c(F)cc(NC(=O)C3(c4ccc(C(F)(F)F)cc4F)CC3)cc2-c2nnn[nH]2)cn1 [Example 240, N-[4-(6-ethoxypyridin-3-yl)-3-fluoro-5-(1H-tetrazol-5-yl)phenyl]-1-[2-fluoro-4-(trifluoromethyl)phenyl] cyclopropane-carboxamide]
54.2 | 127 | – | O=C(Nc1cc(F)c(-c2ccc(C(F)(F)F)nc2)c(-c2nnn[nH]2)c1)C1(c2cccc(Cl)c2)CC1 [Example 241, 1-(3-chlorophenyl)-N-{3-fluoro-5-(1H-tetrazol-5-yl)-4-[6-(trifluoromethyl)pyridin-3-yl]phenyl} cyclopropane-carboxamide]
9.76 | 22.8 | – | O=C(Nc1cc(F)c(-c2ccc(C(F)(F)F)nc2)c(-c2nnn[nH]2)c1)C1(c2ccc(C(F)(F)F)cc2F)CC1 [Example 242, N-{3-fluoro-5-(1H-tetrazol-5-yl)-4-[6-(trifluoromethyl)pyridin-3-yl]phenyl}-1-[2-fluoro-4-(trifluoromethyl)phenyl] cyclopropane-carboxamide]
203 | 575 | – | O=C(Nc1cc(F)c(-c2ccnc(C(F)(F)F)c2)c(-c2nnn[nH]2)c1)C1(c2cccc(Cl)c2)CC1 [Example 243, 1-(3-chlorophenyl)-N-{3-fluoro-5-(1H-tetrazol-5-yl)-4-[2-(trifluoromethyl)pyridin-4-yl]phenyl} cyclopropane-carboxamide]
176 | 512 | – | O=C(Nc1cc(F)c(-c2ccnc(C(F)(F)F)c2)c(-c2nnn[nH]2)c1)C1(c2ccc(F)c(F)c2)CC1 [Example 244, 1-(3,4-difluorophenyl)-N-{3-fluoro-5-(1H-tetrazol-5-yl)-4-[2-(trifluoromethyl)pyridin-4-yl]phenyl} cyclopropane-carboxamide]
8.11 | 7.85 | – | Cc1ccc(-c2c(F)cc(NC(=O)C3(c4cccc(Cl)c4)CC3)cc2-c2nnn[nH]2)cn1 [Example 245, 1-(3-chlorophenyl)-N-[3-fluoro-4-(6-methylpyridin-3-yl)-5-(1H-tetrazol-5-yl)phenyl] cyclopropane-carboxamide]
20 | 37.3 | 61.8 | CCOc1ccc(-c2c(Cl)cc(NC(=O)C3(c4cccc(Cl)c4)CC3)cc2-c2nnn[nH]2)cn1 [Example 247, N-[3-chloro-4-(6-ethoxypyridin-3-yl)-5-(1H-tetrazol-5-yl)phenyl]-1-(3-chlorophenyl) cyclopropane-carboxamide]
14.4 | 25.2 | – | CCOc1ccc(-c2c(Cl)cc(NC(=O)C3(c4cccc(Cl)c4F)CC3)cc2-c2nnn[nH]2)cn1 [Example 248, N-[3-chloro-4-(6-ethoxypyridin-3-yl)-5-(1H-tetrazol-5-yl)phenyl]-1-(3-chloro-2-fluoropheny) cyclopropane-carboxamide]
35.2 | 47.3 | – | O=C(Nc1ccc(-c2ccnc(C(F)F)c2)c(-c2nnn[nH]2)c1)C1(c2ccc(C(F)(F)F)cc2F)CC1 [Example 258, N-{4-[2-(difluoromethyl)pyridin-4-yl]-3-(1H-tetrazol-5-yl)phenyl}-1-[2-fluoro-4-(trifluoromethyl)phenyl]cyclopro-panecarboxamide]
3.52 | 10.6 | – | O=C(Nc1ccc(-c2ccc(C(F)F)nc2)c(-c2nnn[nH]2)c1)C1(c2ccc(C(F)(F)F)cc2F)CC1 [Example 259, N-{4-[6-(difluoromethyl)pyridin-3-yl]-3-(1H-tetrazol-5-yl)phenyl}-1-[2-fluoro-4-(trifluoromethyl)phenyl]cyclopro-panecarboxamide]
18.8 | 14.9 | – | O=C(Nc1ccc(-c2ccc(C(F)F)nc2)c(-c2nnn[nH]2)c1)C1(c2cccc(Cl)c2)CC1 [Example 260, 1-(3-chlorophenyl)-N-{4-[6-(difluoromethyl)pyridin-3-yl]-3-(1H-tetrazol-5-yl)phenyl}cyclopro-panecarboxa-mide]
212 | 204 | – | O=C(Nc1ccc(-c2cnc(C(F)(F)F)nc2)c(-c2nnn[nH]2)c1)C1(c2ccc(C(F)(F)F)cc2F)CC1 [Example 261, 1-[2-fluoro-4-(trifluoromethyl)phenyl]-N-{3-(1H-tetrazol-5-yl)-4-[2-(trifluoromethyl)pyrimidin-5-yl]phenyl}cyclopro-panecarboxa-mide]
